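Interpolation was linear, between the two tested concentrations surrounding the appropriate level; five concentrations were tested over 48 hours in 96-well plates. The concentration for full growth arrest is given as TGI.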 Bounds are passed on as bounds.

Test systems include DMS 273 small cell lung; KM20L2 colon; DMS 114 small cell lung; LXFL 529 NSCLC; M19-MEL melanoma; SNB-78 CNS; DLD-1 colon; XF 498 CNS; CAKI-1 renal; HOP-18 NSCLC; RXF-631 renal; HS 578T breast; PC-3 prostate; NCI/ADR-RES ovarian.
Common to all, as to test: inhibition of tumour cell growth, NCI panel, 48 h

For `CCN(CC)CC1CCCCCCCCCCC1=O` (stereo not drawn), the TGI with DMS 273 small cell lung, in the test on KM20L2 colon, in the test with DMS 114 small cell lung, with LXFL 529 NSCLC, with M19-MEL melanoma and with SNB-78 CNS was > 100 µM each time. Besides, the TGI in the test with DLD-1 colon and in the test on XF 498 CNS was > 100 µM throughout.

Take `CCOC(=O)C1(C#N)C(c2ccccc2)CC(O)(c2ccc(OC)cc2)C(C(=O)c2ccc(OC)cc2)C1c1ccccc1` (stereo not drawn): the TGI in the test with DMS 273 small cell lung, in the test on KM20L2 colon, in the test with CAKI-1 renal, with DMS 114 small cell lung, in the test with LXFL 529 NSCLC and in the test on HOP-18 NSCLC was > 100 µM throughout. Further, the TGI in the test with M19-MEL melanoma, with SNB-78 CNS and with DLD-1 colon was > 100 µM each time.

For `CO/N=C/c1cc(OC)c(OC)c(OC)c1`, the TGI with DMS 273 small cell lung, in the test with KM20L2 colon, in the test on CAKI-1 renal, in the test on DMS 114 small cell lung, in the test on LXFL 529 NSCLC and in the test with HOP-18 NSCLC was > 100 µM throughout. Moreover, the TGI in the test with M19-MEL melanoma, in the test on SNB-78 CNS, with RXF-631 renal, with DLD-1 colon and in the test on XF 498 CNS was > 100 µM throughout.

Take `Cc1cc(N)c(C)c2c1[nH]c1ccc(O)cc12`: the TGI in the test with DMS 273 small cell lung, with CAKI-1 renal, with HOP-18 NSCLC, in the test on M19-MEL melanoma, in the test with SNB-78 CNS and in the test on XF 498 CNS was > 100 µM in each case.

With `Nc1ncnc2c1ccn2C/C=C\CO`, the TGI in the test on HS 578T breast, in the test on CAKI-1 renal, in the test with PC-3 prostate and with NCI/ADR-RES ovarian was > 100 µM in each case.

In the case of `O=c1cc(N2CCOCC2)[nH]c(=O)n1-c1ccc(F)cc1`, the TGI with HS 578T breast, in the test on CAKI-1 renal, with PC-3 prostate and in the test on NCI/ADR-RES ovarian was > 100 µM each time.

With `Oc1c(C2=NNC(c3ccc(Cl)cc3Cl)C2)ccc2ccccc12` (stereo not drawn), the TGI in the test with HS 578T breast was > 100 µM; with CAKI-1 renal, > 100 µM; with PC-3 prostate it was > 100 µM; with NCI/ADR-RES ovarian, 83.3 µM.

On to `CC(C)CC1C(=O)NCCC(NC(=O)C(Cc2ccc(OC(C)(C)C)cc2)NC(=O)OC(C)(C)C)C(=O)NC(Cc2ccccc2)C(=O)NC(Cc2ccccc2)NC1=O` (stereo not drawn), for which the TGI was > 100 µM with HS 578T breast, > 100 µM in the test with CAKI-1 renal, 46.1 µM in the test on PC-3 prostate and > 100 µM in the test on NCI/ADR-RES ovarian.

As to `O=C1NC(NNc2ccccc2)=N/C1=C\c1ccccc1O`, the TGI is > 100 µM in the test on HS 578T breast, > 100 µM in the test on CAKI-1 renal, 82 µM in the test with PC-3 prostate and > 100 µM with NCI/ADR-RES ovarian.

As for `CC(C)(C)OC(=O)N1CCc2[nH][nH]c(=O)c2C1`, the TGI with HS 578T breast, in the test with CAKI-1 renal, in the test on PC-3 prostate and with NCI/ADR-RES ovarian was > 100 µM throughout.

As to `COc1ccc(N2C(=O)C(=O)N(c3ccccc3[N+](=O)[O-])C2=S)cc1`, the TGI with HS 578T breast is 84 µM; in the test with CAKI-1 renal, > 100 µM; in the test with PC-3 prostate it was > 100 µM; in the test on NCI/ADR-RES ovarian, 64.2 µM.

Regarding `COC(=O)CCC1=CCC2(SC)C(=O)Nc3cccc1c32` (stereo not drawn), the TGI with HS 578T breast, with CAKI-1 renal, in the test with PC-3 prostate and in the test with NCI/ADR-RES ovarian was > 100 µM each time.

Turning to `COc1cc(C2SCC(=O)N2c2ccccn2)cc(OC)c1OC` (stereo not drawn), the TGI in the test on HS 578T breast, in the test on CAKI-1 renal, with PC-3 prostate and in the test with NCI/ADR-RES ovarian was > 100 µM throughout.

For `C=C(CCC/C(C)=C/C=C/[C@]1(C)CCCc2ccoc21)CC(=O)O`, the TGI in the test with HS 578T breast, with CAKI-1 renal, in the test on PC-3 prostate and in the test with NCI/ADR-RES ovarian was > 100 µM each time.

For `CC(C)(Br)C(Br)CCC1(C2CO2)CO1` (stereo not drawn), the TGI with HS 578T breast, in the test with CAKI-1 renal, in the test on PC-3 prostate and in the test with NCI/ADR-RES ovarian was > 5 µM throughout.

`CC(=O)c1ccc(NCc2cc(O)ccc2O)cc1`: the TGI with HS 578T breast is > 100 µM; in the test with CAKI-1 renal, 34.6 µM; with PC-3 prostate, 41.3 µM; with NCI/ADR-RES ovarian it was > 100 µM.

Turning to `CC1(C)CC(=O)c2[nH]c3ccccc3c2CC(=O)NCCc2cn1cn2`, the TGI in the test with HS 578T breast, with CAKI-1 renal, with PC-3 prostate and with NCI/ADR-RES ovarian was > 100 µM throughout.

For the molecule `O=C1C2CC=CCC2C(=O)N1n1c(Cc2ccc(Cl)cc2)n[nH]c1=O` (stereo not drawn), the TGI with HS 578T breast, in the test on CAKI-1 renal, in the test with PC-3 prostate and in the test with NCI/ADR-RES ovarian was > 100 µM in each case.

Regarding `CCCCc1c(N(C)C)c(OC(C)=O)c(-c2cn(C)c3ccccc23)oc1=O`, the TGI in the test with HS 578T breast is > 100 µM; in the test on CAKI-1 renal it was > 100 µM; in the test on PC-3 prostate, 50.9 µM; in the test on NCI/ADR-RES ovarian it was 56.3 µM.

In the case of `CCCC[C@@H]1CCN2C[C@@H](O)[C@@H](O)[C@@H]2[C@H]1O`, the TGI in the test with HS 578T breast, in the test with CAKI-1 renal, in the test with PC-3 prostate and with NCI/ADR-RES ovarian was > 100 µM throughout.

For the molecule `N#Cc1nc2ccccc2nc1N1CCN(c2ccc([N+](=O)[O-])cc2)CC1`, the TGI in the test with HS 578T breast, with CAKI-1 renal, in the test with PC-3 prostate and in the test on NCI/ADR-RES ovarian was > 100 µM throughout.

As to `COc1ccc(C2C(Cl)C(=O)N2n2cnc3ccccc3c2=O)cc1` (stereo not drawn), the TGI in the test on DMS 273 small cell lung, in the test with KM20L2 colon, with CAKI-1 renal, in the test with DMS 114 small cell lung, in the test on LXFL 529 NSCLC and with HOP-18 NSCLC was > 100 µM throughout. The TGI in the test on M19-MEL melanoma, in the test on SNB-78 CNS, with DLD-1 colon and in the test with XF 498 CNS was > 100 µM throughout.

As to `Nc1ccc(-c2nc3cc(F)ccc3s2)cc1Cl`, the TGI in the test on HS 578T breast was > 90.4 µM; with CAKI-1 renal it was > 100 µM; with PC-3 prostate, > 100 µM; with NCI/ADR-RES ovarian, > 100 µM.

On to `COC(=O)c1ccc(C(=O)NC(Cc2ccc(Oc3cc(CC(NC(=O)c4ccccc4C(=O)OC)C(=O)OC)ccc3OC)cc2)C(=O)OC)cc1` (stereo not drawn), for which the TGI was 39.3 µM in the test with HS 578T breast, > 100 µM with CAKI-1 renal, > 100 µM in the test with PC-3 prostate and > 100 µM in the test with NCI/ADR-RES ovarian.

On to `COc1cc2cc3c4c(cc(OC)c(OC)c4c2cc1OC)CCN3C(=O)OCCN1CCNCC1`, for which the TGI in the test on DMS 273 small cell lung was 26.5 µM; in the test on KM20L2 colon it was 24.9 µM; in the test on CAKI-1 renal, 28.5 µM; in the test with LXFL 529 NSCLC, 28.3 µM; in the test with HOP-18 NSCLC, 30.7 µM; in the test on M19-MEL melanoma, 19.6 µM. For the same molecule, the TGI in the test on SNB-78 CNS was found to be 31.4 µM; in the test with DLD-1 colon it was 29.1 µM; in the test on XF 498 CNS, 29.4 µM.

As for `NS(=O)(=O)c1ccc(N=Nc2nc3[nH]c(=O)[nH]c(=O)c3[nH]2)cc1`, the TGI in the test with HS 578T breast, in the test with CAKI-1 renal, in the test on PC-3 prostate and in the test with NCI/ADR-RES ovarian was > 100 µM throughout.

For the origin of these results see PubChem BioAssay (NCI).
